Values quoted from earlier work as cited in US8911966B2, “Efficient astaxanthin production strains derived from Haematococcus pluvialis” (Cognis IP Management GmbH, priority 2007, dated 2014).

Conditions: versus α-tocopherol

For `CC1=C(/C=C/C(C)=C/C=C/C(C)=C/C=C/C=C(C)/C=C/C=C(C)/C=C/C2=C(C)C(=O)C(O)CC2(C)C)C(C)(C)CC(O)C1=O` (stereo not drawn) [astaxanthin, 3,3′-dihydroxy-β,β-carotene-4,4′-dione], the “antioxidant activities relative to α-tocopherol (vitamin E)” value is given as “over 500 times”.
